In patent US11840686B2, “Modulation of prekallikrein (PKK) expression” (Ionis Pharmaceuticals, Inc., priority 2013, dated 2023):
Strand notation (5' to 3'): a small letter for the sugar, then the base; units joined by * are phosphorothioate-linked, units joined directly phosphodiester-linked; [ ] holds rarer units or linkages, { } end groups; capitals alone tell only the bases. e = 2'-O-(2-methoxyethyl) (MOE); [5mC] = 5-methylcytosine; d = 2'-deoxy (DNA)

How the values were obtained:
human PKK mRNA [1] = experiment: Antisense inhibition of human PKK mRNA in HepaRG cells, 5,000 nM (Example 2); type: cell-based
Summary of the method: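 HepaRG cells (20,000/well) electroporated with 5,000 nM MOE gapmer (phosphorothioate backbone, 5-methylcytosines) and harvested after ~24 h. PKK mRNA measured by qRT-PCR with primer probe set RTS3454, normalized to RIBOGREEN total RNA; percent inhibition versus untreated cells.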

human PKK mRNA [2] = experiment: Dose-dependent antisense inhibition of human PKK in HepaRG cells, 0.19-5.00 uM (Example 5); type: cell-based; settings: HepaRG cells; for percent inhibition of PKK mRNA, 0.19 μM: 0.19 μM antisense oligonucleotide; for percent inhibition of PKK mRNA, 0.56 μM: 0.56 μM antisense oligonucleotide; for percent inhibition of PKK mRNA, 1.67 μM: 1.67 μM antisense oligonucleotide; for percent inhibition of PKK mRNA, 5.00 μM: 5.00 μM antisense oligonucleotide
Summary of the method: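 HepaRG cells (20,000/well) were electroporated with antisense oligonucleotide at 0.19, 0.56, 1.67 and 5.00 μM and treated for about 16 hours. PKK mRNA was quantified by qRT-PCR with primer probe set RTS3454, normalised to RIBOGREEN total RNA, and IC50 was derived per oligonucleotide.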

[3] = human PKK mRNA, HepaRG cells, 5-10-5 motif oligonucleotides targeting SEQ ID NO: 1 and 10
[4] = electroporation, approximately 16 hours, Table 36
[5] = 4 point dose response, Table 36
[6] = electroporation, approximately 16 hours, Table 40
[7] = 4 point dose response, Table 40
[8] = HepaRG cells, 5,000 nM antisense oligonucleotide, 5-10-5 gapmers, Table 16
[9] = electroporation, approximately 16 hours, Table 35
[10] = 4 point dose response, Table 35
[11] = electroporation, approximately 16 hours, Table 37
[12] = HepaRG cells, 5,000 nM antisense oligonucleotide, 5-10-5 gapmers, Table 17
[13] = electroporation, approximately 16 hours, Table 38

| Substance | % inhibition (human PKK mRNA [1]; [3]) [%] | percent inhibition of PKK at 0.19 μM (human PKK mRNA [2]; [4]) [%] | percent inhibition of PKK at 0.56 μM (human PKK mRNA [2]; [4]) [%] | percent inhibition of PKK at 1.67 μM (human PKK mRNA [2]; [4]) [%] | percent inhibition of PKK at 5.00 μM (human PKK mRNA [2]; [4]) [%] | IC50 (human PKK mRNA [2]; [5]) [nM] | percent inhibition of PKK at 0.19 μM (human PKK mRNA [2]; [6]) [%] | percent inhibition of PKK at 0.56 μM (human PKK mRNA [2]; [6]) [%] | percent inhibition of PKK at 1.67 μM (human PKK mRNA [2]; [6]) [%] | percent inhibition of PKK at 5.00 μM (human PKK mRNA [2]; [6]) [%] | IC50 (human PKK mRNA [2]; [7]) [nM] | percent inhibition of PKK mRNA, 0.19 μM (human PKK mRNA [2]) [%] | percent inhibition of PKK mRNA, 0.56 μM (human PKK mRNA [2]) [%] | percent inhibition of PKK mRNA, 1.67 μM (human PKK mRNA [2]) [%] | IC50 (human PKK mRNA [2]; 0.19-5.00 μM) [nM] | percent inhibition of PKK mRNA, 5.00 μM (human PKK mRNA [2]) [%] | % inhibition (human PKK mRNA [1]; [8]) [%] | further results |
| --- | --- | --- | --- | --- | --- | --- | --- | --- | --- | --- | --- | --- | --- | --- | --- | --- | --- | --- |
| 546894 (eT*e[5mC]*eA*e[5mC]*eT*dG*dT*d[5mC]*d[5mC]*dT*dA*dT*dG*dT*d[5mC]*eA*e[5mC]*eT*eG*eT; antisense) [compound 546894] | 91 | 15 | 47 | 50 | 93 | 900 | – | – | – | – | – | – | – | – | – | – | – | – |
| 546896 (eG*eT*eA*eT*e[5mC]*dA*d[5mC]*dT*dG*dT*d[5mC]*d[5mC]*dT*dA*dT*eG*eT*e[5mC]*eA*e[5mC]; antisense) [compound 546896] | 75 | – | – | – | – | – | 0 | 45 | 82 | 97 | 800 | 35 | 60 | 83 | 400 | – | – | – |
| 546897 (eA*eG*eT*eA*eT*d[5mC]*dA*d[5mC]*dT*dG*dT*d[5mC]*d[5mC]*dT*dA*eT*eG*eT*e[5mC]*eA; antisense) [compound 546897] | 90 | 40 | 56 | 71 | 95 | 400 | – | – | – | – | – | 16 | 17 | 69 | 800 | 97 | – | – |
| 546903 (e[5mC]*e[5mC]*eT*eA*eT*dA*dT*d[5mC]*dA*d[5mC]*dT*dG*dT*dA*d[5mC]*e[5mC]*eT*eA*eT*eA; antisense) [compound 546903] | 91 | 15 | 37 | 74 | 98 | 800 | – | – | – | – | – | – | – | – | – | – | – | – |
| 546916 (e[5mC]*eG*eT*e[5mC]*eA*d[5mC]*dT*dG*dT*dA*d[5mC]*d[5mC]*dT*dA*dT*eA*eA*e[5mC]*eT*eG; antisense) [compound 546916] | – | – | – | – | – | – | – | – | – | – | – | 0 | 27 | 73 | 1000 | 97 | 92 | percent inhibition of PKK at 0.19 μM (human PKK mRNA [2]; [9]): 43%; percent inhibition of PKK at 0.56 μM (human PKK mRNA [2]; [9]): 71%; percent inhibition of PKK at 1.67 μM (human PKK mRNA [2]; [9]): 79%; percent inhibition of PKK at 5.00 μM (human PKK mRNA [2]; [9]): 89%; IC50 (human PKK mRNA [2]; [10]): 200 nM |
| 546939 (eG*e[5mC]*e[5mC]*eA*eT*d[5mC]*dT*dG*dG*dT*dT*dA*dG*d[5mC]*d[5mC]*eT*e[5mC]*e[5mC]*eG*eA; antisense) [compound 546939] | – | – | – | – | – | – | – | – | – | – | – | 16 | 71 | 96 | 400 | 95 | 89 | percent inhibition of PKK at 0.19 μM (human PKK mRNA [2]; [11]): 1%; percent inhibition of PKK at 0.56 μM (human PKK mRNA [2]; [11]): 66%; percent inhibition of PKK at 1.67 μM (human PKK mRNA [2]; [11]): 86%; percent inhibition of PKK at 5.00 μM (human PKK mRNA [2]; [11]): 90%; IC50 (human PKK mRNA [2]; 4 point dose response, Table 37): 600 nM |
| 546967 (e[5mC]*eA*e[5mC]*e[5mC]*eG*d[5mC]*dG*d[5mC]*dG*dA*dA*dT*dG*d[5mC]*d[5mC]*eT*eG*e[5mC]*e[5mC]*eT; antisense) [compound 546967] | – | – | – | – | – | – | – | – | – | – | – | – | – | – | – | – | 93 | percent inhibition of PKK at 0.19 μM (human PKK mRNA [2]; [9]): 20%; percent inhibition of PKK at 0.56 μM (human PKK mRNA [2]; [9]): 39%; percent inhibition of PKK at 1.67 μM (human PKK mRNA [2]; [9]): 76%; percent inhibition of PKK at 5.00 μM (human PKK mRNA [2]; [9]): 71%; percent inhibition of PKK at 5.00 μM (human PKK mRNA [2]; electroporation, approximately 16 hours, Table 41): 92%; percent inhibition of PKK at 0.19 0μM (human PKK mRNA [2]; 0.19 0μM, electroporation, approximately 16 hours, Table 41): 22%; percent inhibition of PKK at 0.56 0μM (human PKK mRNA [2]; 0.56 0μM, electroporation, approximately 16 hours, Table 41): 45%; percent inhibition of PKK at 1.67 1μM (human PKK mRNA [2]; 1.67 1μM, electroporation, approximately 16 hours, Table 41): 74%; IC50 (human PKK mRNA [2]; [10]): 700 nM; IC50 (human PKK mRNA [2]; 4 point dose response, Table 41): 700 nM |
| 546980 (eA*eG*e[5mC]*e[5mC]*e[5mC]*dT*d[5mC]*dA*dA*dT*dT*dG*dT*dT*dG*e[5mC]*eT*eG*eG*eT; antisense) [compound 546980] | – | – | – | – | – | – | 0 | 18 | 29 | 80 | 2200 | – | – | – | – | – | 79 | – |
| 546986 (e[5mC]*eA*eG*eG*eA*dT*dA*dG*dA*dA*d[5mC]*dT*dG*dA*dT*eG*eG*eT*e[5mC]*e[5mC]; antisense) [compound 546986] | – | 31 | 49 | 77 | 89 | 500 | – | – | – | – | – | 7 | 28 | 69 | 1100 | 86 | 91 | – |
| 547006 (e[5mC]*eG*e[5mC]*e[5mC]*eA*dT*d[5mC]*dT*dG*d[5mC]*d[5mC]*d[5mC]*dT*dG*dT*eA*e[5mC]*eA*eG*eA; antisense) [compound 547006] | – | – | – | – | – | – | – | – | – | – | – | – | – | – | – | – | – | % inhibition (human PKK mRNA [1]; [12]): 39%; percent inhibition of PKK at 0.19 μM (human PKK mRNA [2]; [13]): 0%; percent inhibition of PKK at 0.56 μM (human PKK mRNA [2]; [13]): 0%; percent inhibition of PKK at 1.67 μM (human PKK mRNA [2]; [13]): 54%; percent inhibition of PKK at 5.00 μM (human PKK mRNA [2]; [13]): 77%; IC50 (human PKK mRNA [2]; 4 point dose response, Table 38): 1500 nM |
| 547009 (eA*eA*eT*eT*eG*dG*dT*dG*dG*dT*dG*dG*dG*dA*dT*eT*eG*eG*eT*eG; antisense) [compound 547009] | – | – | – | – | – | – | 0 | 9 | 21 | 63 | 3600 | – | – | – | – | – | – | % inhibition (human PKK mRNA [1]; [12]): 73% |
| 547019 (eG*eA*eT*e[5mC]*eG*dG*dT*dG*dG*dT*dG*dG*dG*dA*dT*eT*eG*eG*eT*e[5mC]; antisense) [compound 547019] | – | – | – | – | – | – | 0 | 6 | 54 | 86 | 1600 | – | – | – | – | – | – | % inhibition (human PKK mRNA [1]; [12]): 83% |
